Laboratory results as given in patent publication US12606572B2, “Substituted heterocycles and uses thereof” (Kumquat Biosciences Inc., priority 2023, dated 2026).

How the values were obtained:
[1] = biological target: T1, KRAS G12S (Homo sapiens, UniProt P01116, G12S); test: HTRF assay, interaction of GST-tagged K-Ras with His-tagged hSOS1 (KRAS G12S); format: biochemical; conditions: <500 nM, read-out: Inhibition of KRAS G12S (IC50)
T1 construct: made in house; host or cells: E. coli BL21 (DE3)
Source text: (§1) This assay can be also used to assess a selective inhibition or reduction of signaling output of a mutant Ras protein relative to a wildtype, or relative to a different mutant Ras protein. For example, the equilibrium interaction of wildtype KRAS or K-Ras mutant (e.g., wildtype or a mutant thereof) with SOS1 (e.g., hSOS1) can be assessed as a proxy or an indication for the ability of a subject compound to bind and inhibit Ras protein. The HTRF assay detects from (i) a fluorescence resonance energy transfer (FRET) donor (e.g., antiGST-Europium) that is bound to GST-tagged K-Ras mutant to (ii) a FRET acceptor (e.g., anti-6His-XL665) bound to a His-tagged hSOS1.
(§2) The assay buffer can contain ˜5 mM HEPES pH 7.4, ˜150 mM NaCl, ˜1 mM DTT, 0.05% BSA and 0.0025% (v/v) Igepal. A Ras working solution is prepared in an assay buffer containing typically a suitable amount of the protein construct (e.g., GST-tagged K-Ras mutant) and the FRET donor (e.g., antiGST-Eu(K) from Cisbio, France). A SOS1 working solution is prepared in an assay buffer containing suitable amount of the protein construct (e.g., His-hSOS1) and the FRET acceptor (e.g., anti-6His-XL665 from Cisbio, France). A suitable amount of the protein construct will depend on the range of activity or range of IC50 values being detected or under investigation. For detecting an IC50 within a range of 500 nM, the protein constructs of the same range of molarity can be utilized.
(§3) A fixed volume of DMSO with or without test compound is transferred into a 384-well plate. Ras working solution is added to all wells of the test plate. SOS1 working solution is added to all wells except for those that are subsequently filled with inhibitor control solution. Upon incubation for about 10 minutes or longer, the fluorescence is measured with a M1000Pro plate reader (Tecan) using HTRF detection (excitation 337 nm, emission 1: 620 nm, emission 2: 665 nm). Compounds are tested in duplicate at different concentrations (for example, 10 μM, 2.5 μM, 0.63 μM, 0.16 μM, 0.04 μM, 0.01 μM test compound). The ratiometric data (i.e., emission 2 divided by emission 1) is used to calculate IC50 values against Ras using GraphPad Prism (GraphPad software). Signaling output measured in terms of IC50 values can be obtained and a ratio of IC50 against one mutant relative to another mutant can be calculated. For instance, a selective reduction of K-Ras G12S signaling output can be evidenced by a ratio greater than one. In particular, a selective reduction of K-Ras G12S signaling relative to K-Ras WT signaling is evidenced if the ratio of IC50 (against K-Ras WT) to IC50 (against K-Ras G12S) is greater than 1.

[2] = biological target: T2, KRAS WT (Homo sapiens, UniProt P01116); test: HTRF assay, interaction of GST-tagged K-Ras with His-tagged hSOS1 (KRAS wildtype); format: biochemical; conditions: <500 nM, read-out: Inhibition of KRAS WT (IC50)
T2 construct: made in house; host or cells: E. coli BL21 (DE3)
Source text: as §1, §2, §3

T1 sequence (P01116 1-188 isoform P01116-2 G12S): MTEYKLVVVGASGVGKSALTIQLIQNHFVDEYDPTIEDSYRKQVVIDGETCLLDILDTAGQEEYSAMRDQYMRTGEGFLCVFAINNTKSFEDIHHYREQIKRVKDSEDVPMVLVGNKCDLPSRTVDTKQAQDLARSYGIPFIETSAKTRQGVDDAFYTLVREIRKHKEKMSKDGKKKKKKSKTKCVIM
T2 sequence (P01116 1-188 isoform P01116-2): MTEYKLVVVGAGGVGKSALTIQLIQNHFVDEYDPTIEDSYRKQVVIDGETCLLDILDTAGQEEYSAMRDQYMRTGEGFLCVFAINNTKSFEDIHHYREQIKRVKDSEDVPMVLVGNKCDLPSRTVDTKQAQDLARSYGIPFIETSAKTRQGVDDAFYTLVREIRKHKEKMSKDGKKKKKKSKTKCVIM

| IC50 [1] [µM] | IC50 [2] [µM] | SMILES |
| --- | --- | --- |
| < 0.5 | < 0.5 | Cc1cn(C(=O)N2CC[C@@H](N3CCOc4c(Cl)c(-c5ccc(F)c6sc(N)c(C#N)c56)c(F)c5nc(OC[C@@]67CCCN6C[C@H](F)C7)nc3c45)[C@H]2C)c(C)n1 [Compound 403, 2-amino-4-(8-chloro-4-((2R,3R)-1-(2,4-dimethyl-1H-imidazole-1-carbonyl)-2-methylpyrrolidin-3-yl)-10-fluoro-2-(((2R,7aS)-2-fluorotetrahydro-1H-pyrrolizin-7a(5H)-yl)methoxy)-5,6-dihydro-4H-[1,4]oxazepino[5,6,7-de]quinazolin-9-yl)-7-fluorobenzo[b]thiophene-3-carbonitrile] |
| < 0.5 | < 0.5 | C[C@@H]1[C@H](N2c3nc(OC[C@@]45CCCN4C[C@H](F)C5)nc4c(F)c(-c5ccc(F)c6sc(N)c(C#N)c56)c(Cl)c(c34)OC[C@@H]2C)CCN1C(=O)n1cnc(C#N)c1 [Compound 406, 1-((2R,3R)-3-((5S)-9-(2-amino-3-cyano-7-fluorobenzo[b]thiophen-4-yl)-8-chloro-10-fluoro-2-(((2R,7aS)-2-fluorotetrahydro-1H-pyrrolizin-7a(5H)-yl)methoxy)-5-methyl-5,6-dihydro-4H-[1,4]oxazepino [5,6,7-de]quinazolin-4-yl)-2-methylpyrrolidine-1-carbonyl)-1H-imidazole-4-carbonitrile] |
| < 0.5 | < 0.5 | Cc1cn(C(=O)N2CC[C@@H](N3CCCc4nc(-c5ccc(F)c6sc(N)c(C#N)c56)c(F)c5nc(OC[C@@]67CCCN6C[C@H](F)C7)nc3c45)[C@H]2C)c(C)n1 [Compound 409, 2-amino-4-(10-((2R,3R)-1-(2,4-dimethyl-1H-imidazole-1-carbonyl)-2-methylpyrrolidin-3-yl)-4-fluoro-2-(((2R,7aS)-2-fluorotetrahydro-1H-pyrrolizin-7a (5H)-yl)methoxy)-7,8,9,10-tetrahydro-1,3,6,10-tetraazacyclohepta[de]naphthalen-5-yl)-7-fluorobenzo[b]thiophene-3-carbonitrile] |
| < 0.5 | < 0.5 | C=CC(=O)N1CC[C@@H](N2CCCOc3c(Cl)c(-c4ccc(F)c5sc(N)c(C#N)c45)c(F)c4nc(OC[C@@]56CCCN5C[C@H](F)C6)nc2c34)[C@H]1C [Compound 411, 4-(4-((2R,3R)-1-acryloyl-2-methylpyrrolidin-3-yl)-9-chloro-11-fluoro-2-(((2R,7aS)-2-fluorotetrahydro-1H-pyrrolizin-7a (5H)-yl)methoxy)-4,5,6,7-tetrahydro-[1,5]oxazocino-[4,3,2-de]quinazolin-10-yl)-2-amino-7-fluorobenzo[b]thiophene-3-carbonitrile] |
| < 0.5 | < 0.5 | C[C@@H]1C(CN2CCOc3c(Cl)c(-c4ccc(F)c5sc(N)c(C#N)c45)c(F)c4nc(OC[C@@]56CCCN5C[C@H](F)C6)nc2c34)CN1C(=O)n1ccnc1 (stereo partly drawn) [Compound 413, 4-(4-(((2R)-1-(1H-imidazole-1-carbonyl)-2-methylazetidin-3-yl)methyl)-8-chloro-10-fluoro-2-(((2R,7aS)-2-fluorotetrahydro-1H-pyrrolizin-7a(5H)-yl)methoxy)-5,6-dihydro-4H-[1,4]oxazepino[5,6,7-de]quinazolin-9-yl)-2-amino-7-fluorobenzo[b]thiophene-3-carbonitrile] |
| < 0.5 | < 0.5 | C[C@@H]1CCOc2c(Cl)c(-c3ccc(F)c4sc(N)c(C#N)c34)c(F)c3nc(OC[C@@]45CCCN4C[C@H](F)C5)nc(c23)N1CC1CCCN1C(=O)n1ccnc1 (stereo partly drawn) [Compound 414, 4-((5R)-4-((1-(1H-imidazole-1-carbonyl)pyrrolidin-2-yl)methyl)-9-chloro-11-fluoro-2-(((2R,7aS)-2-fluorotetrahydro-1H-pyrrolizin-7a(5H)-yl)methoxy)-5-methyl-4,5,6,7-tetrahydro-[1,5]oxazocino[4,3,2-de]quinazolin-10-yl)-2-amino-7-fluorobenzo[b]thiophene-3-carbonitrile] |
| < 0.5 | < 0.5 | C[C@@H]1CCOc2c(Cl)c(-c3ccc(F)c4sc(N)c(C#N)c34)c(F)c3nc(OC[C@@]45CCCN4C[C@H](F)C5)nc(c23)N1CC1CCN(C(=O)n2ccnc2)C1 (stereo partly drawn) [Compound 417, 4-((5R)-4-((1-(1H-imidazole-1-carbonyl)pyrrolidin-3-yl)methyl)-9-chloro-11-fluoro-2-(((2R, 7aS)-2-fluorotetrahydro-1H-pyrrolizin-7a(5H)-yl)methoxy)-5-methyl-4,5,6,7-tetrahydro-[1,5]oxazocino [4,3,2-de]quinazolin-10-yl)-2-amino-7-fluorobenzo [b]thiophene-3-carbonitrile] |
| < 0.5 | < 0.5 | N#Cc1c(N)sc2c(F)ccc(-c3c(Cl)c4c5c(nc(OC[C@@]67CCCN6C[C@H](F)C7)nc5c3F)N(CC3CN(C(=O)/C=C/C5CC5)C3)CCO4)c12 [Compound 418, 2-amino-4-(8-chloro-4-((1-((E)-3-cyclopropylacryloyl)azetidin-3-yl)methyl)-10-fluoro-2-(((2R,7aS)-2-fluorotetrahydro-1H-pyrrolizin-7a(5H)-yl)methoxy)-5,6-dihydro-4H-[1,4]oxazepino [5,6,7-de]quinazolin-9-yl)-7-fluorobenzo[b]thiophene-3-carbonitrile] |
| < 0.5 | < 0.5 | C[C@H](O)[C@H]1COc2c(Cl)c(-c3ccc(F)c4sc(N)c(C#N)c34)c(F)c3nc(OC[C@@]45CCCN4C[C@H](F)C5)nc(c23)N1CC1CCN(C(=O)n2ccnc2)C1 (stereo partly drawn) [Compound 419, 4-((5R)-4-((1-(1H-imidazole-1-carbonyl)pyrrolidin-3-yl)methyl)-8-chloro-10-fluoro-2-(((2R,7aS)-2-fluorotetrahydro-1H-pyrrolizin-7a(5H)-yl)methoxy)-5-((S)-1-hydroxyethyl)-5,6-dihydro-4H-[1,4]oxazepino [5,6,7-de]quinazolin-9-yl)-2-amino-7-fluorobenzo[b] thiophene-3-carbonitrile] |
| < 0.5 | < 0.5 | N#Cc1c(N)sc2c(F)ccc(-c3c(Cl)c4c5c(nc(OC[C@@]67CCCN6C[C@H](F)C7)nc5c3F)N(CC3CN(C(=O)/C=C/C(F)F)C3)CCO4)c12 [Compound 423, 2-amino-4-(8-chloro-4-((1-((E)-4,4-difluorobut-2-enoyl)azetidin-3-yl)methyl)-10-fluoro-2-(((2R,7aS)-2-fluorotetrahydro-1H-pyrrolizin-7a (5H)-yl)methoxy)-5,6-dihydro-4H-[1,4]oxazepino[5,6,7-de]quinazolin-9-yl)-7-fluorobenzo[b]thiophene-3-carbonitrile] |
| < 0.5 | < 0.5 | C[C@H](O)[C@H]1COc2c(Cl)c(-c3ccc(F)c4sc(N)c(C#N)c34)c(F)c3nc(OC[C@@]45CCCN4C[C@H](F)C5)nc(c23)N1CC1CN(C(=O)n2ccnc2)C1 [Compound 427, 4-((5R)-4-((1-(1H-imidazole-1-carbonyl)azetidin-3-yl)methyl)-8-chloro-10-fluoro-2-(((2R,7aS)-2-fluorotetrahydro-1H-pyrrolizin-7a(5H)-yl)methoxy)-5-((S)-1-hydroxyethyl)-5,6-dihydro-4H-[1,4]oxazepino [5,6,7-de]quinazolin-9-yl)-2-amino-7-fluorobenzo[b] thiophene-3-carbonitrile] |
| < 0.5 | < 0.5 | C[C@H](O)[C@H]1COc2c(Cl)c(-c3ccc(F)c4sc(N)c(C#N)c34)c(F)c3nc(OC[C@@]45CCCN4C[C@H](F)C5)nc(c23)N1C1CC(N(C)C(=O)n2ccnc2)C1 (stereo partly drawn) [Compound 428, N-(3-((5R)-9-(2-amino-3-cyano-7-fluorobenzo[b]thiophen-4-yl)-8-chloro-10-fluoro-2-(((2R,7aS)-2-fluorotetrahydro-1H-pyrrolizin-7a(5H)-yl)methoxy)-5-((S)-1-hydroxyethyl)-5,6-dihydro-4H-[1,4]oxazepino [5,6,7-de]quinazolin-4-yl)cyclobutyl)-N-methyl-1H-imidazole-1-carboxamide] |
